Source: US20070202503A1, “Pharmaceutical Composition Of (+)-Erythro-Mefloquine And Its Use” (priority 2004, published 2007)

What was measured:
human neutrophil = conditions: cited from earlier work
[1] = Adverse events in clinical study on a background of methotrexate therapy; type: in vivo, patients; conditions: combination of (+)-erythro-mefloquine and methotrexate
Excerpt: The formulations were used on a background of methotrexate therapy.
This is shown in FIG. 2, a plot of TMD (mean score) against time (days); ♦ represents placebo, ▴ represents A, ▪ represents B and ★ represents C.

SMILES | effect on human neutrophil degranulation (human neutrophil) | Adverse events compared with methotrexate alone [1]
OC(c1cc(C(F)(F)F)nc2c(C(F)(F)F)cccc12)C1CCCCN1 (racemic) [Racemic mefloquine, mefloquine] | stimulates human neutrophil degranulation | –
O[C@H](c1cc(C(F)(F)F)nc2c(C(F)(F)F)cccc12)[C@@H]1CCCCN1 [(+)-erythro-mefloquine] | – | lower adverse events than methotrexate alone
